Experiments:
rats = experiment: Tolerability after oral administration to rats (behaviour); assay type: in vivo; conditions: oral administration of 10 mg/kg
db/db mice = experiment: Oral glucose tolerance test; assay type: in vivo; conditions: fasted db/db mice, 2 g/kg oral glucose 30 minutes after substance
Protocol: Oral Glucose Tolerance Test
Fasted db/db mice 7 to 9 weeks old (Janvier, France) are weighed and blood is taken from the tip of the tail. This blood is used for the first measurement of glucose on the basis of which the animals are randomised and divided into groups. The test substance to be tested may be given either orally or i.p. as a suspension in 0.5% Natrosol. 30 minutes after the administration of the substance the animals are given orally 2 g/kg glucose in a volume of 0.1 ml/100 g body weight dissolved in NaCl solution. Subsequently, the glucose values are determined from the tail blood using a glucometer (Ultra OneTouch, Lifescan) at specific time intervals [30, 60, 120 and 180 minutes after oral administration of the glucose].

## CC(=O)c1ccc2c(c1)/C(=C(/NC1CCN(C)CC1)c1ccc3c(c1)OCO3)C(=O)N2 [Example 1, 5-Acetyl-3-[(benzo[1,3]dioxol-5-yl)-(1-methyl-piperidin-4-ylamino)-methylidene]-2-indolinone]
rats
  changes in the animals' behaviour: no changes were observed in the animals' behaviour
db/db mice
  activity in the oral glucose tolerance test: significant activity

From patent publication US7262206B2, “Cycloalkyl—containing 5-acylindolinones, the preparation thereof and their use as medicaments” (Boehringer Ingelheim International GmbH, priority 2004, dated 2007)
